Source: article PMC10529594, “Strasseriolides display in vitro and in vivo activity against trypanosomal parasites and cause morphological and size defects in Trypanosoma cruzi” (PLOS Neglected Tropical Diseases, 2023)
pEC50: −log10 of the molar value. Where “and” joins values, the source holds several entries; their conditions need not be identical. Equal values may be shown once. Read-outs that look alike come from different tables or passages of the source.

Key:
T. cruzi trypomastigotes = experiment: T. cruzi trypomastigote viability / rate of action assay (CellTiter-Glo bioluminescence); format: cell-based, Trypanosoma cruzi; settings: for pEC50: Trypanosoma cruzi; for Hill slope: Trypomastigotes
Protocol: Tulahuen T. cruzi trypomastigotes were recovered 6 days post infection from the supernatant of harvested infected L6 cells cultures after 3 hours at 37°C. 90 μL of parasite culture at a density of 5 × 10^6 cells in RPMI 1640 media were dispensed into 96 Nunc flat bottom assay plates containing 10 μL of each compound.
Parasite viability was assessed upon 24, 48 and 72 hour incubation at 37°C in 5% CO2 by adding 50 μL of CellTiter-Glo viability reagent to white 96-well microplates. After signal stabilization, bioluminescence was read. Compound concentrations ranged from 0.1 μM to 50 μM and final maximal DMSO percentage in the well was 0.05%. Results were normalized to […] control columns in each plate.

[1] = system: intracellular T. cruzi amastigotes; experiment: Rate of kill, intracellular T. cruzi amastigotes (CPRG, 96-well); format: cell-based, Trypanosoma cruzi; settings: Amastigotes; for pEC50: Trypanosoma cruzi
Protocol: For rate of kill experiments, in vitro activity against intracellular T. cruzi amastigotes was analyzed at early time points: 24, 48 and 72 hours. The standard colorimetric transgenic assay was established in a 96-well format, with serial dilutions of compounds and 0.05% as the final maximal DMSO percentage per well. In these experiments L6 host cells were included as negative controls and CPRG conversion was monitored at 585 nm using a Versamax microplate reader (Molecular devices).

[2] = system: transgenic Trypanosoma cruzi Brazil strain expressing firefly luciferase; experiment: In vivo efficacy, acute T. cruzi infection in BALB/c mice (luciferase imaging); settings: 30 mg/kg i.p. 5 days
Protocol: In vivo experiments were performed at the Anti-infectives Screening Core Services facility of the New York University School of Medicine. The transgenic Trypanosoma cruzi Brazil strain expressing firefly luciferase was used. Groups of five female BALB/c mice were infected with 2 × 10^6 T. cruzi trypomastigotes. […] Quantification is based on luciferase activity of the parasites after i.p. injection of 150 mg/Kg D-luciferin potassium-salt in PBS. Luminescence is measured on the fifth day using an IVIS Lumina II imager.

[3] = system: T. b. brucei 427 bloodstream forms; experiment: Resazurin-based T. b. brucei assay; format: cell-based; settings: Trypanosoma brucei, 72 h, read-out: EC50 T. brucei
Protocol: Parasites strains adapted to culture in vitro were used. T. b. brucei Lister 427 bloodstream form parasites (information about the identity and genealogy of this strain is available at The Rockefeller University website) were grown in HMI-9 medium supplemented with 10% heat-inactivated fetal bovine serum (iFBS).
Cells in logarithmic phase of growth were added using a Multidrop dispenser (45 μL, 500 bloodstream T. b. brucei parasites per well) to 384-well Corning assay plates already containing 5 μL of each compound and controls, and incubated for 72 hours at 37°C. 10 μL of resazurin were added per well, and the plates were further incubated for 6 hours at 37°C. The final fluorescence was determined at 550–590 nm. Pentamidine at 40 nM and 0.0067% DMSO were used as […] growth controls, respectively.

[4] = system: human macrophage THP-1 cells; experiment: Cytotoxicity in THP-1 macrophages (MTT); format: cell-based; settings: for pEC50: Homo sapiens, read-out: EC50 THP-1
Protocol: Cellular toxicity of compounds in the human macrophage host TPH-1 cell line was determined using the colorimetric MTT-based assay as previously described.
THP-1 cells were seeded at 3 × 10^4 cells/well in 96-well plates and were differentiated to macrophages with 20 ng/ml of PMA treatment for 48 h followed by 24 h incubation in fresh medium. Strasseriolides were added at increasing concentrations up to 50 μM and cells were further incubated at 37°C for 72 h. 10 μL of MTT (5 mg/mL in PBS) were added to each well, and plates were incubated for an additional period of 8 h at 37°C. Formazan crystals were dissolved by adding 50 μL of 20% SDS and absorbance was read at 595 nm using a microplate reader.

Plasmodium berghei = system: Plasmodium berghei; set-up: method as in PMID 34865639; settings: Plasmodium berghei murine model; cited from earlier work

O=C(Cn1ccnc1[N+](=O)[O-])NCc1ccccc1 [Benznidazole, benznidazole]
RLU Average, trypomastigote viability (T. cruzi trypomastigotes; 24 h, 0.0976562 µM, untreated 165925): 168859 RLU | RLU Average, trypomastigote viability (T. cruzi trypomastigotes; 24 h, 0.195312 µM, untreated 165925): 163337 RLU | RLU Average, trypomastigote viability (T. cruzi trypomastigotes; 24 h, 0.390625 µM, untreated 165925): 166320 RLU | RLU Average, trypomastigote viability (T. cruzi trypomastigotes; 24 h, 0.78125 µM, untreated 165925): 165144 RLU | RLU Average, trypomastigote viability (T. cruzi trypomastigotes; 24 h, 1.5625 µM, untreated 165925): 164063 RLU | RLU Average, trypomastigote viability (T. cruzi trypomastigotes; 24 h, 3.125 µM, untreated 165925): 161383 RLU | RLU Average, trypomastigote viability (T. cruzi trypomastigotes; 24 h, 6.25 µM, untreated 165925): 134179 RLU | RLU Average, trypomastigote viability (T. cruzi trypomastigotes; 24 h, 12.5 µM, untreated 165925): 39621 RLU | RLU Average, trypomastigote viability (T. cruzi trypomastigotes; 24 h, 25 µM, untreated 165925): 10652 RLU | RLU Average, trypomastigote viability (T. cruzi trypomastigotes; 24 h, 50 µM, untreated 165925): 5606 RLU | RLU Average, trypomastigote viability (T. cruzi trypomastigotes; 48 h, 0.0976562 µM, untreated 141819): 139946 RLU | RLU Average, trypomastigote viability (T. cruzi trypomastigotes; 48 h, 0.195312 µM, untreated 141819): 134140 RLU | RLU Average, trypomastigote viability (T. cruzi trypomastigotes; 48 h, 0.390625 µM, untreated 141819): 131074 RLU | RLU Average, trypomastigote viability (T. cruzi trypomastigotes; 48 h, 0.78125 µM, untreated 141819): 112587 RLU | RLU Average, trypomastigote viability (T. cruzi trypomastigotes; 48 h, 1.5625 µM, untreated 141819): 83947 RLU | RLU Average, trypomastigote viability (T. cruzi trypomastigotes; 48 h, 3.125 µM, untreated 141819): 48357 RLU | RLU Average, trypomastigote viability (T. cruzi trypomastigotes; 48 h, 6.25 µM, untreated 141819): 13088 RLU | RLU Average, trypomastigote viability (T. cruzi trypomastigotes; 48 h, 12.5 µM, untreated 141819): 3643 RLU | RLU Average, trypomastigote viability (T. cruzi trypomastigotes; 48 h, 25 µM, untreated 141819): 1831 RLU | RLU Average, trypomastigote viability (T. cruzi trypomastigotes; 48 h, 50 µM, untreated 141819): 1028 RLU | RLU Average, trypomastigote viability (T. cruzi trypomastigotes; 72 h, 0.0976562 µM, untreated 100126): 104132 RLU | RLU Average, trypomastigote viability (T. cruzi trypomastigotes; 72 h, 0.195312 µM, untreated 100126): 98515 RLU | RLU Average, trypomastigote viability (T. cruzi trypomastigotes; 72 h, 0.390625 µM, untreated 100126): 89377 RLU | RLU Average, trypomastigote viability (T. cruzi trypomastigotes; 72 h, 0.78125 µM, untreated 100126): 67508 RLU | RLU Average, trypomastigote viability (T. cruzi trypomastigotes; 72 h, 1.5625 µM, untreated 100126): 34320 RLU | RLU Average, trypomastigote viability (T. cruzi trypomastigotes; 72 h, 3.125 µM, untreated 100126): 15352 RLU | RLU Average, trypomastigote viability (T. cruzi trypomastigotes; 72 h, 6.25 µM, untreated 100126): 4824 RLU | RLU Average, trypomastigote viability (T. cruzi trypomastigotes; 72 h, 12.5 µM, untreated 100126): 2711 RLU | RLU Average, trypomastigote viability (T. cruzi trypomastigotes; 72 h, 25 µM, untreated 100126): 1262 RLU | RLU Average, trypomastigote viability (T. cruzi trypomastigotes; 72 h, 50 µM, untreated 100126): 683 RLU | pEC50 (T. cruzi trypomastigotes; 24 h): 5.05 | pEC50 (T. cruzi trypomastigotes; 48 h): 5.69 | pEC50 (T. cruzi trypomastigotes; 72 h): 5.94 | Hill slope (T. cruzi trypomastigotes; 24 h): 3.93 | Hill slope (T. cruzi trypomastigotes; 48 h): 1.66 | Hill slope (T. cruzi trypomastigotes; 48 h, listed as benznidazole): below 2.1 | Hill slope (T. cruzi trypomastigotes; 72 h): 2.07 | Hill slope (T. cruzi trypomastigotes; 72 h, listed as benznidazole): below 2.1 | Hill slope ([1]; 24 h): 1.06 | Hill slope ([1]; 48 h): 1.24 | Hill slope ([1]; 72 h): 1.99 | pEC50 ([1]; 24 h): 5.54 | pEC50 ([1]; 48 h): 5.99 | pEC50 ([1]; 72 h): 6.05 | Total counts, individual mouse ([2]; 30 mg/kg): 4950000 and 268000 and 48200 and 38100 | Total counts, Average ([2]; vehicle average 8050000): 1330000

C/C1=C\[C@H](C)[C@@H](O)C[C@@H](O)/C(C)=C/[C@H](C)C[C@@H](C)CC[C@@H]([C@@H](C)C(=O)O)OC(=O)[C@@H](C)C1 [Strasseriolide D, strasseriolide D]
pEC50 [3]: < 4.00 | Selectivity index intracellular L. donovani versus THP-1 cells [4]: > 37 | pEC50 ([4]; THP-1, 72 h, MTT): < 3.30 | in vivo antiprotozoal activity (Plasmodium berghei): exhibit in vivo antiprotozoal activity

C/C1=C\[C@H](C)CCC(=O)/C(C)=C/[C@H](C)C[C@@H](C)CC[C@@H]([C@@H](C)C(=O)O)OC(=O)[C@@H](C)C1 [Strasseriolide A, strasseriolide A]
pEC50 [3]: 3.56 | Selectivity index intracellular L. donovani versus THP-1 cells [4]: > 8 | pEC50 ([4]; THP-1, 72 h, MTT): < 3.90

C/C1=C\[C@H](C)CC[C@@H](O)/C(C)=C/[C@H](C)C[C@@H](C)CC[C@@H]([C@@H](C)C(=O)O)OC(=O)[C@@H](C)C1 [Strasseriolide B, strasseriolide B]
pEC50 [3]: 4.57 | Selectivity index intracellular L. donovani versus THP-1 cells [4]: 4962 | pEC50 ([4]; THP-1, 72 h): 3.79
